SMILES strings stand for the structures. pIC50: −log10 of the molar value.

One data set addresses hERG (KCNH2) (Homo sapiens, UniProt Q12809). The data set is described as follows: Inhibition of hERG at 10 uM relative to control. The class given is toxicity.
Data set [1] deals with 5-hydroxytryptamine receptor 2A (Homo sapiens, UniProt P28223). The data set is described as follows: Antagonist activity at 5HTR2A (unknown origin) assessed as inhibition of 5-HTR2A.
5-hydroxytryptamine receptor 2A, sequence (P28223 whole entry): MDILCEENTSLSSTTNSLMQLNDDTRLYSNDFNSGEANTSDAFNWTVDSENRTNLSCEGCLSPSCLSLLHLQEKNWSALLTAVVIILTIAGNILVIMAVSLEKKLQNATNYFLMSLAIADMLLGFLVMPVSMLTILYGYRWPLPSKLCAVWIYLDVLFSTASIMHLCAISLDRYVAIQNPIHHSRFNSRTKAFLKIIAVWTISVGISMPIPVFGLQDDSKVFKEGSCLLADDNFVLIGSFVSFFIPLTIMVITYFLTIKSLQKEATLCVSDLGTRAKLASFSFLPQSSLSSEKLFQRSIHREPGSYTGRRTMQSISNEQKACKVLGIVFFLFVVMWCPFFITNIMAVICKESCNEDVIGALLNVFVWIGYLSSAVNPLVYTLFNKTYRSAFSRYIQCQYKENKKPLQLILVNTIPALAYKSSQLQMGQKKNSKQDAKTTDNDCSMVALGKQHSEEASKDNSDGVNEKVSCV

hERG (KCNH2), sequence (Q12809 whole entry): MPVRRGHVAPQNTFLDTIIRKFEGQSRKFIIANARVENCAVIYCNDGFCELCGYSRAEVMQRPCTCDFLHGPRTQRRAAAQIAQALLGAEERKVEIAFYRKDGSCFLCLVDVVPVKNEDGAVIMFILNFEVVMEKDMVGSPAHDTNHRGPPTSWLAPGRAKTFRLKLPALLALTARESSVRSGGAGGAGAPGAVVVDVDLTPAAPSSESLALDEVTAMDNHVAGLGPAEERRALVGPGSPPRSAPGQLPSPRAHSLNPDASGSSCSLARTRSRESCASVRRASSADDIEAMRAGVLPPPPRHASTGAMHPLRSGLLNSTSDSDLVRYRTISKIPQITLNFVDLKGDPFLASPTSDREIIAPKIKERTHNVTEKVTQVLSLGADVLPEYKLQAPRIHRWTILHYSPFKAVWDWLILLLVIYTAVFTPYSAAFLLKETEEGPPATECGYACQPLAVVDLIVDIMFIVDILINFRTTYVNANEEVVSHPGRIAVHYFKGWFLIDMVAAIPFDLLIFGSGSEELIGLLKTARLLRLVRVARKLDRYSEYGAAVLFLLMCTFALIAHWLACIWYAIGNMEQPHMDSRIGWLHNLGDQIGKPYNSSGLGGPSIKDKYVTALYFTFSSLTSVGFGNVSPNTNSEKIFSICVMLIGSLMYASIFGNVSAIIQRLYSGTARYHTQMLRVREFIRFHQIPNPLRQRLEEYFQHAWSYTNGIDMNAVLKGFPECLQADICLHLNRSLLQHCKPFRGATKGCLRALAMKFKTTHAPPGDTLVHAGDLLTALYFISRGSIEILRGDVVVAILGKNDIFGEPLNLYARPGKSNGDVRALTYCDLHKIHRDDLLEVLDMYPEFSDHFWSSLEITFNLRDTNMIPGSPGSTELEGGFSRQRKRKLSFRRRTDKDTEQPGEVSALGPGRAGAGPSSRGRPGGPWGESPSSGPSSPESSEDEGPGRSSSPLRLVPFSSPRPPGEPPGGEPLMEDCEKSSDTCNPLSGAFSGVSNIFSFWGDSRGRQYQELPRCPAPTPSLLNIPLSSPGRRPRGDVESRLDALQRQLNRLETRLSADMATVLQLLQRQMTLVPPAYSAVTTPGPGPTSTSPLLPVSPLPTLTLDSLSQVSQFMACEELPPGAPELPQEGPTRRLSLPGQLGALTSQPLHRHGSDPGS

`O=C(NCc1ccc(OCC(O)CN2CCN(c3noc4cc(F)ccc34)CC2)cc1)N(Cc1cc(F)c(F)cc1F)C1CCNCC1` (stereo not given): on hERG (KCNH2), at 10 µM the inhibition was 72.9%. The pIC50 in data set [1] was 7.30. In the same order, the values of `O=C(NCc1ccc(OCC(O)CN2CCN(c3noc4cc(F)ccc34)CC2)cc1)N(Cc1ccc(F)cc1F)C1CCNCC1` (stereo not given) are 87.7% and 7.33. With `O=C(NCc1ccc(OCC(O)CN2CCN(c3cccc(Cl)c3Cl)CC2)cc1)N(Cc1ccc(F)cc1)C1CCNCC1` (stereo not given), the negative-log IC50 (pIC50) in data set [1] was 7.04. On the same count and under the same terms, next, `O=C(c1ccc(F)cc1)C1CCN(CC(O)COc2ccc(CNC(=O)N(Cc3ccc(F)cc3)C3CCNCC3)cc2)CC1` (stereo not given): 6.18; `O=C(NCc1ccc(OCC(O)CN2CCN(c3nsc4ccccc34)CC2)cc1)N(Cc1ccc(F)cc1)C1CCNCC1` (stereo not given): 7.27. Consider `O=C(NCc1ccc(OCC(O)CN2CCN(c3noc4cc(F)ccc34)CC2)cc1)N(Cc1c(F)cc(F)cc1F)C1CCNCC1` (stereo not given), for which, on hERG (KCNH2), 10 µM produced 83.6% inhibition. Moreover, the negative-log IC50 (pIC50) in data set [1] is 7.44. `O=C(NCc1ccc(OCC(O)CN2CCC(C3c4ccc(Cl)cc4CCc4cccnc43)CC2)cc1)N(Cc1ccc(F)cc1)C1CCNCC1` (stereo not given): the negative-log IC50 (pIC50) in data set [1] was 6.09.
